According to article PMC9323733, “Efficacy of Vafidemstat in Experimental Autoimmune Encephalomyelitis Highlights the KDM1A/RCOR1/HDAC Epigenetic Axis in Multiple Sclerosis” (Pharmaceutics, 2022):
Entries after “also recorded” stand apart in the source; their conditions may differ.

Key:
recombinant HDAC2 = molecular target: T1, recombinant HDAC2 (Homo sapiens, UniProt Q92769); assay: HDAC2 fluorimetric biochemical assay
T1 construct: purchased BPS Bioscience 50002
Description: HDAC2 activity was determined using a fluorimetric assay at BPS Bioscience (San Diego, CA, USA). Compounds were dissolved in DMSO (Sigma), and serial dilutions were further diluted in HDAC assay buffer (BPS). These working solutions were incubated in duplicate at room temperature for 3 h in a mixture containing HDAC assay buffer, BSA (Fisher Scientific), and recombinant HDAC2 (BPS). The enzymatic reactions were initiated by the addition of a fluorogenic, acetylated peptide substrate (BPS) and proceeded for 30 min at 37 °C. Then, HDAC assay developer (BPS) was added, and after further incubation at room temperature, fluorescence intensity was measured at an excitation of 360 nm and an emission of 460 nm using a Tecan Infinite M1000 microplate reader. Trichostatin A (TSA, Selleckchem, Houston, TX, USA) was used as a reference inhibitor.
For the biochemical assays, the fluorescence signal relative to the background (assay mixture in the absence of the enzyme) was subtracted from each fluorescent intensity data. Activity in the presence of compound was expressed as a percentage of fluorescence intensity in the absence of the compound.

SH-SY5Y cells = assay: Human H3 acetylation assay (Western blot), cellular HDAC activity; assay type: cell-based; conditions: 1 and 0.1 µM, 2 and 6 h
Description: Human H3 acetylation assays: for the determination of global and K9-specific acetylation levels, 500,000 SH-SY5Y cells were seeded in 6-well plates in DMEM/F12 1:1 (Sigma), supplemented with 2 mM glutamine (LabClinics) and 10% FBS (Sigma) and incubated at 37 °C and 5% CO2 in a humid atmosphere. […] After 2 and 6 h of treatment, cells were harvested and centrifuged at 250× g for 4 min at room temperature and cell pellets used for total histone extraction with EpiQuik Total Histone Extraction Kit (Epigentek, Farmingdale, NY, USA) following manufacturer’s instructions. 1 µg of histone extracts were run in MOPS buffer in 12% PAGE (Life Technologies, Carlsbad, CA, USA) and transferred with the iBlot system to nitrocellulose membranes. Transferred blots were stained with the Ponceau S solution (Sigma) and scanned with an Epson Perfection V600 Photo Scanner. Membranes were blocked in blocking buffer (5% skimmed milk in PBS-Tween 0.1%) for 1 h at room temperature, and after blocking blots were incubated with rabbit polyclonal anti-H3K9Ac (1:2000 dilution, Abcam, Cambridge, UK) and rabbit polyclonal anti-H3ac (K9 + K14 + K18 + K23 + K27) (1:2000 dilution, Abcam) overnight at 4 °C in ablocking buffer. […]

lymphocytes = assay: GLP toxicological studies, lymphocyte count, rats; assay type: in vivo, Wistar rats; conditions: mean ± SD
Description: T r eat m e nt N Ly m p h o c y te s Equivalent m ou se d o se
( mg /k g p. o. ga va g e) (109/ L ) ( mg /k g p.o ga va ge)
6 m ont h s W i sta r r at s
9 m ont h s Be ag le d og s
Eff ec t of t r ea t me nt wi t h O RY-2 00 1 a d mi ni st e r e d by or al ga va ge o n l y m ph oc yt e s ob se r ve d i n G LP
t ox i c ol ogi c a l st udi e s i n r at a nd do g. A ni ma l s we r e t re a t e d or al l y (fi ve c o ns e c ut i ve da ys/ we e k) by ga va ge
28 da ys or 6 mo nt hs ( ra t s) a nd 28 da ys or 9 mo nt hs (dogs). Data re prese nt de me a n ± S D. T he e q ui va l e n t
dos e i n m o use i s i n di c at e d. 1-wa y A N OV A a n d D u n ne t t’ s M ul ti pl e C o m pa ri so n t e st wa s use d.

T1 sequence (Q92769 whole entry): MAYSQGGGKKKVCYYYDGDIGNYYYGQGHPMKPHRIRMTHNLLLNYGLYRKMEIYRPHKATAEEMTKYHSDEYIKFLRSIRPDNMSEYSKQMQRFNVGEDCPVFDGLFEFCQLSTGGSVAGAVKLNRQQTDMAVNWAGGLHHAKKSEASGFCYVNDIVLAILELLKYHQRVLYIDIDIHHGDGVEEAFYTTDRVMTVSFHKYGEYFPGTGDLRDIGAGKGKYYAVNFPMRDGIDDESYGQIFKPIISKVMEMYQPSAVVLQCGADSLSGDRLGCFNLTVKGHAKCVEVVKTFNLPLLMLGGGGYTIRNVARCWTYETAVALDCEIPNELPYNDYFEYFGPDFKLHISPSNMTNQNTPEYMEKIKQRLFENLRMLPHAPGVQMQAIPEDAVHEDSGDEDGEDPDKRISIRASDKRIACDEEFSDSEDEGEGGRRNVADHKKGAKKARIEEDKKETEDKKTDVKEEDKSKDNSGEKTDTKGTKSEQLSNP

SMILES	impact on recombinant HDAC2 activity (recombinant HDAC2)	impact on cellular HDAC activity (acetylated H3 or H3K9 levels) (SH-SY5Y cells)	Lymphocytes (lymphocytes; 6 months Wistar rats, 0.07 mg/kg p.o. gavage (equivalent mouse dose 0.14))	Lymphocytes (lymphocytes; 6 months Wistar rats, 0.20 mg/kg p.o. gavage (equivalent mouse dose 0.40))	Lymphocytes (lymphocytes; 6 months Wistar rats, 0.40 mg/kg p.o. gavage (equivalent mouse dose 0.80))	Lymphocytes (lymphocytes; 28 d Wistar rats, 0.07 mg/kg p.o. gavage (equivalent mouse dose 0.14))	Lymphocytes (lymphocytes; 28 d Wistar rats, 0.20 mg/kg p.o. gavage (equivalent mouse dose 0.40))	Lymphocytes (lymphocytes; 28 d Wistar rats, 0.60 mg/kg p.o. gavage (equivalent mouse dose 1.20))
CCCCCCCCc1ccc(CCC(N)(CO)CO)cc1 [FTY720, Fingolimod, reference compound]	did not inhibit HDAC; also recorded: unable to confirm the previous studies reporting that FTY720 or FTY720-P had any significant impact	unable to confirm the previous studies reporting that FTY720 or FTY720-P had any significant impact	–	–	–	–	–	–
Nc1nnc(CN[C@@H]2C[C@H]2c2ccc(OCc3ccccc3)cc2)o1 [ORY-2001]	–	–	3.25 ± 0.75 109/L	4.02 ± 0.99 109/L	3.72 ± 1.12 109/L	3.65 ± 1.39 109/L	3.44 ± 0.62 109/L	3.89 ± 1.14 109/L
